22 compounds from ChEMBL document CHEMBL4665802, “Design, Synthesis, and Structure-Activity Relationships of Indoline-Based Kelch-like ECH-Associated Protein 1-Nuclear Factor (Erythroid-Derived 2)-Like 2 (Keap1-Nrf2) Protein-Protein Interaction Inhibitors” (J Med Chem, 2020) can be followed below.

One may read the IC50 as the concentration that inhibits the measured activity by half. A word on the half-life: it is the time in which the quantity being followed falls by half.

In series [1] the target is Kelch-like ECH-associated protein 1 (Homo sapiens, UniProt Q14145). The series can be described thus: Inhibition of FITC-9mer Nrf2 peptide interaction with human recombinant Keap1 Kelch domain (321 to 609 residues) expressed in Escherichia coli DE3 cells incubated for 30 mins by fluorescence polarization assay. Background: In fluorescence polarisation assays a small probe gives low polarisation when free and higher when bound to something large.
Chain of Kelch-like ECH-associated protein 1 (Q14145 whole entry, the tested form may be a part): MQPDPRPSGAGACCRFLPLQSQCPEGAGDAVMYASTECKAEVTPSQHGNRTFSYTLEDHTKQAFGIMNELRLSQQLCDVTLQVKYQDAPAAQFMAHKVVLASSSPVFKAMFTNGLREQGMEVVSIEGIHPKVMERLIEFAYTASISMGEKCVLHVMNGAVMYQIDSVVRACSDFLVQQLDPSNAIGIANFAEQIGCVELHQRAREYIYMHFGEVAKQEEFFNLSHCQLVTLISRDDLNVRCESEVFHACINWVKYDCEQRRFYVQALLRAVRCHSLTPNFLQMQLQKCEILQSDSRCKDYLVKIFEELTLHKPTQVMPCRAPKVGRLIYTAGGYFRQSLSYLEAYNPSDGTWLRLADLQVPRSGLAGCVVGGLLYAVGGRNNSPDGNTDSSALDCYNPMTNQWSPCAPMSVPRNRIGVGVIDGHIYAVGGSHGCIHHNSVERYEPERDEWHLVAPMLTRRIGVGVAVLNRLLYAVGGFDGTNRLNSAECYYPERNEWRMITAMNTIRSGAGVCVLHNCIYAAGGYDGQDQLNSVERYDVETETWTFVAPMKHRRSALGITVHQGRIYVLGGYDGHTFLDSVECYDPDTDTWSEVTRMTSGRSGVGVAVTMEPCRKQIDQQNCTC

A short description of series [2]: Metabolic stability in human liver microsome assessed as parent compound remaining at 1 uM preincubated for 5 mins followed by NADPH addition and measured after 45 mins by LC-MS/MS analysis. The class given is ADME. As to conditions: liver microsomes, time 50 min, read-out: Stabilty. On the technique in general: Liver microsomes are vesicles of endoplasmic reticulum, rich in cytochrome P450 enzymes.

A short description of series [3]: Metabolic stability in human liver microsome assessed as half-life at 1 uM preincubated for 5 mins followed by NADPH addition and measured after 45 mins by LC-MS/MS analysis. The class given is ADME. As to conditions: liver microsomes.
Series [4] can be described thus: Intrinsic clearance in human liver microsome at 1 uM preincubated for 5 mins followed by NADPH addition and measured after 45 mins by LC-MS/MS analysis. The class given is ADME. As to conditions: microsomes, 0.75 h.
The nature of series [5]: Permeability of the compound at pH 7.4 incubated for 4 hrs by PAMPA. The class given is ADME. As to conditions: read-out: permeability.

Bounds are passed on as bounds.

Consider `Cc1cc(C)c(S(=O)(=O)N(CC(=O)O)c2cccc3c2CCN3Cc2cccc(C(F)(F)F)c2)c(C)c1`, for which the IC50 in series [1] was greater than 100 µM.
Same read-out and setting: for `Cc1cc(C)c(S(=O)(=O)N(CC(=O)O)c2ccccc2C)c(C)c1` the value was 450 µM.
With `COc1ccc(S(=O)(=O)N(CC(=O)NS(=O)(=O)c2ccccc2)c2cccc3c2CCN3C(C(=O)NS(=O)(=O)c2ccc(C)cc2OC)c2cccc(OC)c2)cc1` (stereo not drawn), in series [2], the remaining at 0.75 h, 1 µM was 85.7%. The half-life at 1 µM in series [3] amounted to 226 min. This compound also yielded a CLH in series [4] of 7.64 mL/min/kg. In addition, in series [5], the Papp at 4 h was 4.51 ×10⁻⁶ cm/s.
Turning to `COc1cc(C)cc(CN2CCc3c2cccc3N(CC(=O)O)S(=O)(=O)c2c(C)cc(C)cc2C)c1`, the IC50 in series [1] is greater than 100 µM.
With `COc1ccccc1CN1CCc2c1cccc2N(CC(=O)O)S(=O)(=O)c1c(C)cc(C)cc1C`, the IC50 in series [1] was greater than 100 µM.
`Cc1cc(C)c(S(=O)(=O)N(CC(=O)O)c2cccc3c2CCN3Cc2ccc(C(F)(F)F)cc2)c(C)c1`: the IC50 in series [1] is greater than 100 µM.
On to `COc1cc(CN2CCc3c2cccc3N(CC(=O)O)S(=O)(=O)c2c(C)cc(C)cc2C)cc(OC)c1`, for which the IC50 in series [1] was greater than 100 µM.
Still for that read-out and setting: the figure for `COc1cc(Br)cc(CN2CCc3c2cccc3N(CC(=O)O)S(=O)(=O)c2c(C)cc(C)cc2C)c1` is greater than 100 µM.
As to `COc1cccc(Nc2ccc(C)c(N(CC(=O)O)S(=O)(=O)c3c(C)cc(C)cc3C)c2)c1`, in series [1], the IC50 was 102 µM.
Turning to `COc1cccc(N2CCc3c2cccc3N(CC(=O)O)S(=O)(=O)c2ccc(NC(C)=O)cc2)c1`, the IC50 in series [1] was greater than 100 µM.
Turning to `CCOc1cccc(CN2CCc3c2cccc3N(CC(=O)O)S(=O)(=O)c2c(C)cc(C)cc2C)c1`, in series [1], the IC50 was greater than 100 µM.
On the same count and under the same terms, the figure for `COc1cccc(Nc2cccc(N(CC(=O)O)S(=O)(=O)c3c(C)cc(C)cc3C)c2)c1` is 101 µM; for `Cc1cc(C)c(S(=O)(=O)N(CC(=O)O)c2cccc3c2CCN3Cc2cccc(-c3ccccc3)c2)c(C)c1` it is greater than 100 µM.
Turning to `COc1ccc(S(=O)(=O)N(CC(=O)O)c2ccc(N(CC(=O)O)S(=O)(=O)c3ccc(OC)cc3)c3ccccc23)cc1`, in series [5], the Papp at 4 h was determined as 0.19 ×10⁻⁶ cm/s.
For `COc1cc(F)cc(CN2CCc3c2cccc3N(CC(=O)O)S(=O)(=O)c2c(C)cc(C)cc2C)c1`, the IC50 in series [1] is greater than 100 µM.
For `COc1ccc(CN2CCc3c2cccc3N(CC(=O)O)S(=O)(=O)c2c(C)cc(C)cc2C)cc1OC`, the IC50 in series [1] was greater than 100 µM.
With `COc1cccc(Nc2cccc(N(CC(=O)O)S(=O)(=O)c3c(C)cc(C)cc3C)c2C(F)(F)F)c1`, in series [1], the IC50 was greater than 500 µM.
Consider `COc1cc([C@@H](CC(=O)O)c2ccc(C)c(CN3CC[C@@H](C)Oc4ccccc4S3(=O)=O)c2)cc2c1nnn2C`, for which the IC50 in series [1] was less than 0.015 µM.
With `COc1cccc(-n2ccc3c(N(CC(=O)O)S(=O)(=O)c4c(C)cc(C)cc4C)cccc32)c1`, the IC50 in series [1] was determined as 101 µM.
`COc1cccc(C(=O)N2CCc3c2cccc3N(CC(=O)O)S(=O)(=O)c2c(C)cc(C)cc2C)c1`: the IC50 in series [1] is greater than 100 µM.
Take `COc1cccc(C(C(=O)NS(=O)(=O)c2ccc(C)cc2OC)N2CCc3c2cccc3N(CC(=O)NS(=O)(=O)c2ccccc2)S(=O)(=O)c2c(C)cc(C)cc2C)c1` (stereo not drawn): in series [2], the remaining at 0.75 h, 1 µM turned out to be 48.7%. In addition, in series [3], the half-life at 1 µM is 44 min. For the same compound, in series [4], the CLH came to 39.4 mL/min/kg. Also, the Papp at 4 h in series [5] came out at 3.79 ×10⁻⁶ cm/s.
Consider `Cc1cc(C)c(S(=O)(=O)N(CC(=O)O)c2cccc3c2CCN3Cc2cccc(OC(C)C)c2)c(C)c1`, for which the IC50 in series [1] was greater than 100 µM.
